Assay results from paper PMC4993765, “Shikonin Inhibits Intestinal Calcium-Activated Chloride Channels and Prevents Rotaviral Diarrhea” (Frontiers in Pharmacology, 2016).

Biological target: T1, TMEM16A (Homo sapiens, UniProt Q5XXA6)
T1 construct: gene ANO1
T1 sequence (Q5XXA6 1-986): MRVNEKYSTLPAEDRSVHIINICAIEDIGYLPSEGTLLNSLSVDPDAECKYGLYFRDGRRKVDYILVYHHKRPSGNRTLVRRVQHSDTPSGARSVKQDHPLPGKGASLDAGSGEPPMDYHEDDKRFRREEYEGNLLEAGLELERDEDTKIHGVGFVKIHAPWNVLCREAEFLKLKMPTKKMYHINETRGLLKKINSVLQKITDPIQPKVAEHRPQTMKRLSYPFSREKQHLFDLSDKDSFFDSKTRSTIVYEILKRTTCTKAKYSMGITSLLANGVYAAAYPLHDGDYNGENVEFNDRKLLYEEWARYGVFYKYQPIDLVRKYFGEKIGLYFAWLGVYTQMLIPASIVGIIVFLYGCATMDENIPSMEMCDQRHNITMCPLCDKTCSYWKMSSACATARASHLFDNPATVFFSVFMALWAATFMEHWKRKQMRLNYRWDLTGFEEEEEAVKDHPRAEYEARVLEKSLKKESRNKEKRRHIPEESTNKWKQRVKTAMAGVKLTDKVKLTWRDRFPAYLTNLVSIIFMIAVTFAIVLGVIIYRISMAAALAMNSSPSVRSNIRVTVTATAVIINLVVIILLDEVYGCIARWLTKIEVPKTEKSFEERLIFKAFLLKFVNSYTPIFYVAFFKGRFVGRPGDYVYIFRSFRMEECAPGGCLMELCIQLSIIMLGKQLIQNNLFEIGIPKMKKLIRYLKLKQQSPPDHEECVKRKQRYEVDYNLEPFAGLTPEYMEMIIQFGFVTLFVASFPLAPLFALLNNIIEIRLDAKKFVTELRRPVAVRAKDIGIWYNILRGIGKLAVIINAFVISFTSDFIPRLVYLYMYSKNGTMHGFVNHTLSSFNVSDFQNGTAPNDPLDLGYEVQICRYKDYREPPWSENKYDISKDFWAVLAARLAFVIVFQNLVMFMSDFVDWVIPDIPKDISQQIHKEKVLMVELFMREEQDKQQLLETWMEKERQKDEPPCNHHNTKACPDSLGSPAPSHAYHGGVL
Assay: short-circuit current (Eact-induced Cl- current) in basolaterally permeabilized FRT cells expressing TMEM16A; also YFP fluorescence quenching
Assay type: cell-based

Molecule CC(C)=CC[C@@H](O)C1=CC(=O)c2c(O)ccc(O)c2C1=O [shikonin] has an IC50 of 1.5 µM.
